Test results taken from patent publication US8519188B2, “Compounds which can be used for the treatment of cancers” (Marc-Henry Pitty, priority 2008, dated 2013).

Assays:
[1] = system: MCF-7/adr adriamycin-resistant breast cancer cell line; assay: Cell proliferation (CellTiter 96 AQueous MTS/PMS), MCF-7/adr; format: cell-based; settings: Homo sapiens, NCI/ADR-RES; MCF-7/adr; 72 hours of incubation; concentration that induces the death of 50% of the cells; read-out: CI50 for various cell lines (nM) MCF-7/adr
Experimental: (§1) The effects of the compounds of the invention on the proliferation of cancer cells were studied on various human cancer cell lines of various tissue origins (MCF-7: breast cancer, MCF-7/adr adriamycin-resistant breast cancer, ARH-77: myeloma, ARH-77/Dox: doxorubicin (other name for adriamycin)-resistant myeloma, HL-60: acute promyelocytic leukaemia, HL-60/R10: doxorubicin-resistant acute promyelocytic leukaemia). The cancer cells used for this study were incubated at 37° C. in the presence of one of the compounds of the invention added to the culture medium at various concentrations.
(§2) The cancer cell lines originate from the ATCC (American Type Culture Collection) in the case of MCF-7, ARH-77 and HL-60, from Pharmacell (Paris, France) for HL-60/R10, from Oncodesign (Dijon, France) for ARH-77/Dox and from the Pitié Salpetrière Hospital for MCF-7/adr. They were cultivated in a RPMI 1640 medium containing 2 mM L-glutamine and supplemented with 10% foetal calf serum. All the cell lines were maintained in culture at 37° C. in a moist atmosphere containing 5% CO2. Cell proliferation was evaluated using the “CellTiter 96® AQueous” reagent (Promega, Wis., USA) while adhering to the manufacturer's instructions. The cells were seeded in 96-well culture plates in a proportion of from 5,000 to 10,000 cells per well in 200 μl of culture medium. After 24 hours of preincubation at 37° C., the compounds of the invention dissolved in dimethyl sulphoxide (DMSO) were added individually to each of the wells in a proportion of 2 μl per well. After 72 hours of incubation at 37° C. in a moist atmosphere containing 5% CO2, 40 μL of a MTS/PMS ([3-(4,5-dimethylthiazol-2-yl)-5-(3-carboxymethoxyphenyl)-2-(4-sulphophenyl)-2H-tetrazolium phenazine methosulphate) solution were added to each well.

[2] = system: MCF-7 breast cancer cell line; assay: Cell proliferation (CellTiter 96 AQueous MTS/PMS), MCF-7; format: cell-based; settings: Homo sapiens, MCF7; MCF-7; 72 hours of incubation; concentration that induces the death of 50% of the cells; read-out: CI50 for various cell lines (nM) MCF-7
Experimental: as §1, §2

Row | Structure (SMILES) | IC50 [1] [nM] | IC50 [2] [nM]
1 | C#CC(=O)N(c1cccc(C(F)(F)F)c1)C(C(=O)NC1CCCCC1)c1ccccc1[N+](=O)[O-] (centres unmarked) [Compound 85, Propynoic Acid [cyclohexylcarbamoyl-(2-nitrophenyl)methyl]-(3-trifluoromethylphenyl)amide] | 1.6 | 177
2 | C#CC(=O)N(c1cccc(C(F)(F)F)c1)C(C(=O)NC1CCCCC1)c1ccc(Cl)cc1Cl (centres unmarked) [Compound 86, Propynoic Acid [cyclohexylcarbamoyl-(2,4-dichlorophenyl)methyl]-(3-trifluoromethylphenyl)amide] | 0.8 | 216
3 | C#CC(=O)N(c1cccc(C(F)(F)F)c1)C(C(=O)NC1CCCCC1)c1ccc(SC)cc1 (centres unmarked) [Compound 88, Propynoic Acid [cyclohexylcarbamoyl-(4-methylsulphanylphenyl)methyl]-(3-trifluoromethylphenyl)amide] | 1.4 | 334
4 | C#CC(=O)N(c1cccc(C(F)(F)F)c1)C(C(=O)NC1CCCCC1)c1ccc(C(C)C)cc1 (centres unmarked) [Compound 89, Propynoic Acid [cyclo hexylcarbamoyl-(4-isopropylphenyl)methyl]-(3-trifluoromethylphenyl)amide] | 2.2 | 825
5 | C#CC(=O)N(c1cccc(C(F)(F)F)c1)C(C(=O)NC1CCCCC1)c1cccc(Oc2ccccc2)c1 (centres unmarked) [Compound 90, Propynoic Acid [cyclohexylcarbamoyl-(3-phenoxyphenyl)methyl]-(3-trifluoromethylphenyl)amide] | 2.2 | 820
6 | C#CC(=O)N(c1cccc(C(F)(F)F)c1)C(C(=O)NC1CCCCC1)c1cccc(C)c1 (centres unmarked) [Compound 94, Propynoic Acid (cyclohexylcarbamoyl-m-tolylmethyl)-(3-trifluoromethylphenyl)amide] | 2 | 599
7 | C#CC(=O)N(c1cccc(C(F)(F)F)c1)C(C(=O)NC1CCCCC1)c1cccc(C#N)c1 (centres unmarked) [Compound 95, Propynoic Acid [(3-cyanophenyl)-cyclohexylcarbamoylmethyl]-(3-trifluoromethylphenyl)amide] | 1.4 | 243
8 | C#CC(=O)N(c1cccc(C(F)(F)F)c1)C(C(=O)NC1CCCCC1)c1ccc(C)cc1C (centres unmarked) [Compound 100, Propynoic Acid [cyclohexylcarbamoyl-(2,4-dimethylphenyl)methyl]-(3-trifluoromethylphenyl)amide] | 0.5 | 308
9 | C#CC(=O)N(c1cccc(C(F)(F)F)c1)C(C(=O)NC1CCCCC1)c1ccc(N2CCCC2)cc1 (centres unmarked) [Compound 101, Propynoic Acid [cyclohexylcarbamoyl-(4-pyrrolidin-1-yl-phenyl)methyl]-(3-trifluoromethylphenyl)amide] | 1.1 | 416
10 | C#CC(=O)N(c1cccc(C(F)(F)F)c1)C(C(=O)NC1CCCCC1)c1ccc(Cl)c(Cl)c1 (centres unmarked) [Compound 102, Propynoic Acid [cyclohexylcarbamoyl-(3,4-dichlorophenyl)methyl]-(3-trifluoromethylphenyl)amide] | 1 | 428
11 | C#CC(=O)N(c1cccc(C(F)(F)F)c1)C(C(=O)NC1CCCCC1)c1cccc(F)c1F (centres unmarked) [Compound 106, Propynoic Acid [cyclohexylcarbamoyl-(2,3-difluorophenyl)methyl]-(3-trifluoromethylphenyl)amide] | 1 | 260
12 | O=C(NC1CCCCC1)C(c1cccs1)N(C(=O)CBr)c1cccc(C(F)(F)F)c1 (centres unmarked) [Compound 107, 2-[(2-Bromoacetyl)-(3-trifluoromethylphenyl)amino]-N-cyclohexyl-2-thiophen-2-yl-acetamide] | 0.5 | 267
13 | COc1ccc(N(C(=O)CCl)C(C(=O)NC2CCCCC2)c2cccs2)cc1 (centres unmarked) [Compound 109, 2-[(2-Chloroacetyl)-(4-methoxyphenyl)amino]-N-cyclohexyl-2-thiophen-2-yl-acetamide] | 1 | 100
14 | O=C(NC1CCCCC1)C(c1cccs1)N(C(=O)CCl)c1cccc(C(F)(F)F)c1 (centres unmarked) [Compound 110, 2-[(2-Chloroacetyl)-(3-trifluoromethylphenyl)amino]-N-cyclo hexyl-2-thiophen-2-yl-acetamide] | 1 | 70
15 | C#CC(=O)N(c1cccc(C(F)(F)F)c1)C(C(=O)Nc1ccccc1OCc1ccccc1)c1cccs1 (centres unmarked) [Compound 112, Propynoic Acid [(2-benzyloxyphenylcarbamoyl)thiophen-2-yl-methyl]-(3-trifluoromethylphenyl)amide] | 1.8 | 200
16 | N#Cc1cccc(N(C(=O)CCl)C(C(=O)NC2CCCCC2)c2cccs2)c1 (centres unmarked) [Compound 121, 2-[(2-Chloroacetyl)-(3-cyanophenyl)amino]-N-cyclohexyl-2-thiophen-2-yl-acetamide] | 70 | 252

Row | Structure (SMILES) | IC50 [1] [nM] | IC50 [2] [nM]
17 | N#Cc1ccc(N(C(=O)CCl)C(C(=O)NC2CCCCC2)c2cccs2)cc1 (centres unmarked) [Compound 122, 2-[(2-Chloroacetyl)-(4-cyanophenyl)amino]-N-cyclohexyl-2-thiophen-2-yl-acetamide] | 4 | 300
18 | COc1ccccc1N(C(=O)CCl)C(C(=O)NC1CCCCC1)c1cccs1 (centres unmarked) [Compound 124, 2-[(2-Chloroacetyl)-(2-methoxyphenyl)amino]-N-cyclohexyl-2-thiophen-2-yl-acetamide] | 27 | > 2000
19 | CCN(CC)c1ccc(N(C(=O)CCl)C(C(=O)NC2CCCCC2)c2cccs2)cc1 (centres unmarked) [Compound 127, 2-[(2-Chloroacetyl)-(4-diethylaminophenyl)amino]-N-cyclohexyl-2-thiophen-2-yl-acetamide] | 7.5 | 77
20 | O=C(NC1CCCCC1)C(c1cccs1)N(C(=O)CCl)c1ccc(O)cc1 (centres unmarked) [Compound 128, 2-[(2-Chloroacetyl)-(4-hydroxyphenyl)amino]-N-cyclohexyl-2-thiophen-2-yl-acetamide] | 86 | 133
21 | O=C(NC1CCCCC1)C(c1cccs1)N(C(=O)CCl)c1ccc(C(F)(F)F)cc1 (centres unmarked) [Compound 129, 2-[(2-Chloroacetyl)-(4-trifluoromethylphenyl)amino]-N-cyclohexyl-2-thiophen-2-yl-acetamide] | 3.6 | 77
22 | O=C(CN(C(=O)CCl)c1cccc(C(F)(F)F)c1)NC1CCCCC1 [Compound 130, 2-Chloro-N-cyclohexylcarbamoylmethyl-N-(3-trifluoromethylphenyl)acetamide] | 34 | 203
23 | O=C(NC1CCCCC1)C(c1cccs1)N(C(=O)CCl)c1cccc2ccccc12 (centres unmarked) [Compound 134, 2-[(2-Chloroacetyl)naphthalen-1-yl-amino]-N-cyclohexyl-2-thiophen-2-yl-acetamide] | 74 | > 1000
24 | O=C(NC1CCCCC1)C(c1cccs1)N(C(=O)CCl)c1ccc2c(c1)OCO2 (centres unmarked) [Compound 135, 2-[1,3-Benzodioxol-5-yl-(2-chloroacetyl)amino]-N-cyclo hexyl-2-thiophen-2-yl-acetamide] | 19 | 285
25 | COC(=O)CCNC(=O)C(c1cccs1)N(C(=O)CCl)c1cccc(C(F)(F)F)c1 (centres unmarked) [Compound 139, 3-{2-[(2-Chloroacetyl)-(3-trifluoromethylphenyl)amino]-2-thiophen-2-yl-acetylamino}propionic acid methyl ester] | 63 | 468
26 | CN(C)c1ccc(C(C(=O)NC2CCCCC2)N(C(=O)CCl)c2cccc(C(F)(F)F)c2)cc1 (centres unmarked) [Compound 147] | 1.1 | 92
27 | O=C(NC1CCCCC1)C(c1ccc(N2CCCC2)cc1)N(C(=O)CCl)c1cccc(C(F)(F)F)c1 (centres unmarked) [Compound 150] | 0.6 | 230
28 | COC(=O)c1cccc(NC(=O)C(c2cccs2)N(C(=O)CCl)c2cccc(C(F)(F)F)c2)c1 (centres unmarked) [Compound 153] | 1.3 | 79
29 | COC(=O)c1ccc(NC(=O)C(c2cccs2)N(C(=O)CCl)c2cccc(C(F)(F)F)c2)cc1 (centres unmarked) [Compound 154] | 3.5 | 88
30 | CC(C)(C(=O)NCc1ccc(F)cc1)N(C(=O)CCl)c1ccc(F)cc1 [Compound 185, 2-[(2-Chloroacetyl)-(4-fluoro-phenyl)-amino]-N-(4-fluoro-benzyl)-2-methyl-propionamide] | 127 | 2790
31 | COc1ccc(CNC(=O)C(C)(C)N(C(=O)CCl)c2ccc(Oc3ccccc3)cc2C)cc1 [Compound 187, 2-[(2-Chloro-acetyl)-(2-methyl-4-phenoxy-phenyl)-amino]-N-(4-methoxy-benzyl)-2-methyl-propionamide] | 99 | 1130
